pEC50: −log10 of the molar value.
biological target: T1, human muscarinic acetylcholine M1 receptor (Homo sapiens, UniProt P11229); assay: M1 PAM Assay (IP-One HTRF, IP1 accumulation in M1-CHO cells); assay type: cell-based; conditions: not given
T1 construct: expressed in transfected cells; host or cells: CHO-K1
T1 sequence (P11229 1-460): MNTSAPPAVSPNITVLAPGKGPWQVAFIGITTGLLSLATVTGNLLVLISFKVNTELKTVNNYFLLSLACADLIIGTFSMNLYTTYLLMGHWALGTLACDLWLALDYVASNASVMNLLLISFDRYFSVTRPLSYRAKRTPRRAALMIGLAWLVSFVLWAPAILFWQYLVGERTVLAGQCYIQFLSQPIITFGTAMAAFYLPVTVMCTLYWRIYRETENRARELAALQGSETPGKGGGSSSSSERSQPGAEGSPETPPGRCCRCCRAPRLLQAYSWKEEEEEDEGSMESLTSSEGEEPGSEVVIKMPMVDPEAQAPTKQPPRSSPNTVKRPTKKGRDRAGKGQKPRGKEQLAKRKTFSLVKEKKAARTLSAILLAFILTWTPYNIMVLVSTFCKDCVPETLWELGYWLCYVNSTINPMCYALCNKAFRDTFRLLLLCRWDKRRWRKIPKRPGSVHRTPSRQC
Method: Then diluted compounds (0.6% DMSO final concentration) are added together with EC20 of acetylcholine and incubated with the cells for 30 min at 37° C., 5% CO2.
CHO-K1 cells stably transfected with human muscarinic acetylcholine M1 receptor are cultured in Ham's F12 medium containing 10% heat inactivated fetal calf serum, 2 mM L-glutamine and Penicillin-Streptomycin grown in a humidified atmosphere at 5% CO2/95% air at 37° C.

Structure (SMILES) | pEC50
N#CCN1[C@@H]2CC[C@H]1C[C@@H](Oc1cc(F)ccc1C(=O)N1Cc3nn4cc(Cl)cnc4c3C1)C2 [Example 66, [(3endo)-3-{2[(3-chloro-7H-pyrrolo[3′,4′:3,4]pyrazolo[1,5-a]pyrimidin-8(9H)-yl)carbonyl]-5-fluorophenoxy}-8-azabicyclo[3.2.1]oct-8-yl]acetonitrile] | 6.00 to 6.70
CN1C2CC(Oc3cc(F)ccc3C(=O)N3Cc4nn5cc(Cl)cnc5c4C3)CC1[C@@H](O)C2 (mixture of isomers) [Example 69, (3-chloro-7H-pyrrolo[3′,4′:3,4]pyrazolo[1,5-a]pyrimidin-8(9H)-yl)(4-fluoro-2-(((3-endo)-(6-exo)-6-hydroxy-8-methyl-8-azabicyclo[3.2.1]octan-3-yl)oxy)phenyl)methanone] | > 6.70

same assay, conditions: CHO-K1 cells stably transfected with human M1 receptor; compounds added with EC20 of acetylcholine (25 nM), 30 min; intracellular IP1 by IP-One HTRF; read-out: M1 PAM EC50

pEC50 | Structure (SMILES)
6.00 to 6.70 | Cc1nc2c3c(nn2c(C)c1Cl)CN(C(=O)c1ccc(F)cc1OC1CCN(CC(O)C(F)(F)F)CC1)C3 (stereo not shown) [Example 75, (6-Chloro-5,7-dimethyl-1H,3H-2,4,7a,8-tetraaza-cyclopenta[a]inden-2-yl)-{4-fluoro-2-[1-(3,3,3-trifluoro-2-hydroxy-propyl)-piperidin-4-yloxy]-phenyl}-methanone]
5.52 to 6.00 | Cc1nc2c3c(nn2c(C)c1Cl)CN(C(=O)c1ccccc1O[C@H]1CCCC[C@@H]1O)C3 (racemic) [Example 17, (anti)-(3-chloro-2,4-dimethyl-7H-pyrrolo[3′,4′:3,4]pyrazolo[1,5-a]pyrimidin-8(9H)-yl)(2-((2-hydroxycyclohexyl)oxy)phenyl)methanone]
5.52 to 6.00 | Cc1nc2c3c(nn2c(C)c1Cl)CN(C(=O)c1ccc(F)cc1O[C@H]1COC[C@@H]1O)C3 (racemic) [Example 26, (anti)-(3-chloro-2,4-dimethyl-7H-pyrrolo[3′,4′:3,4]pyrazolo[1,5-a]pyrimidin-8(9H)-yl)(4-fluoro-2-((4-hydroxytetrahydrofuran-3-yl)oxy)phenyl)methanone]
6.00 to 6.70 | Cc1nc2c3c(nn2c(C)c1Cl)CN(C(=O)c1ccc(F)cc1O[C@H]1CC[C@@H](O)CC1)C3 (single isomer, unassigned) [Example 49, (syn)-(6-Chloro-5,7-dimethyl-1H,3H-2,4,7a,8-tetraaza-cvclopenta[a]inden-2-yl)-[4-fluoro-2-(4-hydroxy-cyclohexyloxy)-phenyl]-methanone]
> 6.70 | Cc1nc2c3c(nn2c(C)c1Cl)CN(C(=O)c1ccc(F)cc1OC[C@H]1C[C@@H](F)CN1)C3 [Example 60, (6-Chloro-5,7-dimethyl-1H,3H-2,4,7a,8-tetraaza-cyclopenta[a]inden-2-yl)-[4-fluoro-2-((2R,4R)-4-fluoro-pyrrolidin-2-ylmethoxy)-phenyl]-methanone]
